Data: patent publication US20220363686A1 (AiCuris GmbH & Co. KG, priority 2018, published 2022)

What was measured:
HBV = experiment: Determination of HBV DNA from the supernatants of HepAD38 cells (anti-HBV activity); format: cell-based, hepatitis B virus; details: Hepatitis B virus, HePAD38, 144 h, HBV DNA in HepAD38 supernatant, day 6, qPCR; read-out: Cell Activity
Procedure: The anti-HBV activity was analysed in the stable transfected cell line HepAD38, which has been described to secrete high levels of HBV virion particles (Ladner et al., 1997). In brief, HepAD38 cells were cultured at 37° C. at 5% CO2 and 95% humidity in 200 μl maintenance medium, which was Dulbecco's modified Eagle's medium/Nutrient Mixture F-12 (Gibco, Karlsruhe), 10% fetal bovine serum (PAN Biotech Aidenbach) supplemented with 50 μg/ml penicillin/streptomycin (Gibco, Karlsruhe), 2 mM L-glutamine (PAN Biotech, Aidenbach), 400 μg/ml G418 (AppliChem, Darmstadt) and 0.3 μg/ml tetracycline. Cells were subcultured once a week in a 1:5 ratio, but were usually not passaged more than ten times. For the assay 60,000 cells were seeded in maintenance medium without any tetracycline into each well of a 96-well plate and treated with serial half-log dilutions of test compound. To minimize edge effects the outer 36 wells of the plate were not used but were filled with assay medium. On each assay plate six wells for the virus control (untreated HepAD38 cells) and six wells for the cell control (HepAD38 cells treated with 0.3 μg/ml tetracycline) were allocated, respectively. In addition, one plate set with reference inhibitors like BAY 41-4109, entecavir, and lamivudine instead of screening compounds were prepared in each experiment. In general, experiments were performed thrice in triplicates. At day 6 HBV DNA from 100 μl filtrated cell culture supernatant (AcroPrep Advance 96 Filter Plate, […] Supor membran, PALL GmbH, Dreieich) was automatically purified on the MagNa Pure LC instrument using the MagNA Pure 96 DNA and Viral NA Small Volume Kit (Roche Diagnostics, Mannheim) according to the instructions of the manufacturer. EC50 values were calculated from relative copy numbers of HBV DNA In brief, 5 μl of the 100 μl eluate containing HBV DNA were subjected to PCR LC480 Probes Master Kit (Roche) together with 1 μM antisense primer […], 0.5 μM sense primer […], 0.3 μM hybprobes […]-FL and LC640-[…]-PH (TIBMolBiol, Berlin) to a final volume of 12.5 μl. The PCR was performed on the Light Cycler 480 real time system (Roche Diagnostics, Mannheim) using the following protocol: Pre-incubation for 1 min at 95° C., amplification: 40 cycles×(10 sec at 95° C., 50 sec at 60° C., 1 sec at 70° C.), cooling for 10 sec at 40° C. Viral load was quantitated against known standards using HBV plasmid DNA of pCH-9/3091 (Nassal et al., 1990, Cell 63: 1357-1363) and the LightCycler 480 SW 1.5 software (Roche Diagnostics, Mannheim) and ECso values were calculated using non-linear regression with GraphPad Prism 6 (GraphPad Software Inc., La Jolla, USA).

[1] = target: HBV core protein (C-terminal truncated core protein containing 149 amino acids of the N-terminal assembly domain) (UniProt P03146); experiment: Biochemical capsid assembly assay (fluorescence quenching); parameters: rows headed: Assembly Activity; other: BODIPY-FL labelled core protein, assembly started with NaCl, read after 6 min; details: read-out: Assembly Activity; BODIPY-FL labelled core protein, assembly started with NaCl, read after 6 min
Procedure: The screening for assembly effector activity was done based on a fluorescence quenching assay published by Zotnick et al. (2007). The C-terminal truncated core protein containing 149 amino acids of the N-terminal assembly domain fused to a unique cysteine residue at position 150 and was expressed in E. coli using the pET expression system (Merck Chemicals, Darmstadt). Purification of core dimer protein was performed using a sequence of size exclusion chromatography steps. In brief, the cell pellet from 1 L BL21 (DE3) Rosetta2 culture expressing the coding sequence of core protein cloned NdeI/XhoI into expression plasmid pET21b was treated for 1 h on ice with a native lysis buffer (Qproteome Bacterial Protein Prep Kit; Qiagen, Hilden). After a centrifugation step the supernatant was precipitated during 2 h stirring on ice with 0.23 g/ml of solid ammonium sulfate. Following further centrifugation the resulting pellet was resolved in buffer A (100 mM Tris, pH 7.5; 100 mM NaCl; 2 mM DTT) and was subsequently loaded onto a buffer A equilibrated CaptoCore 700 column (GE HealthCare, Frankfurt). The column flow through containing the assembled HBV capsid was dialyzed against buffer N (50 mM NaHCO3 pH 9.6; 5 mM DTT) before urea was added to a final concentration of 3M to dissociate the capsid into core dimers for 1.5 h on ice. The protein solution was then loaded onto a IL Sephacryl S300 column. After elution with buffer N core dimer containing fractions were identified by SDS-PAGE and subsequently pooled and dialyzed against 50 mM HEPES pH 7.5; 5 mM DTT. To improve the assembly capacity of the purified core dimers a second round of assembly and disassembly starting with the addition of 5 M NaCl and including the size exclusion chromatography steps described above was performed. From the last chromatography step core dimer containing fractions were pooled and stored in aliquots at concentrations between 1.5 to 2.0 mg/ml at −80° C.
Immediately before labelling the core protein was reduced by adding freshly prepared DTT in a final concentration of 20 mM. After 40 min incubation on ice storage buffer and DTT was removed using a Sephadex G-25 column (GE HealthCare, Frankfurt) and 50 mM HEPES, pH 7.5. For labelling 1.6 mg/ml core protein was incubated at 4° C. and darkness overnight with BODIPY-FL maleimide (Invitrogen, Karlsruhe) in a final concentration of 1 mM. After labelling the free dye was removed by an additional desalting step using a Sephadex G-25 column. Labelled core dimers were stored in aliquots at 4° C. In the dimeric state the fluorescence signal of the labelled core protein is high and is quenched during the assembly of the core dimers to high molecular capsid structures. The screening assay was performed in black 384 well microtiter plates in a total assay volume of 10 μl using 50 mM HEPES pH 7.5 and 1.0 to 2.0 μM labelled core protein. Each screening compound was added in 8 different concentrations using a 0.5 log-unit serial dilution starting at a final concentration of 100 μM, 31.6 μM or 10 μM, In any case the DMSO concentration over the entire microtiter plate was 0.5%. The assembly reaction was started by the injection of NaCl to a final concentration of […] which induces the assembly process to approximately 25% of the maximal quenched signal. 6 min after starting the reaction the fluorescence signal was measured using a Clariostar plate reader (BMG Labtech, Ortenberg) with an excitation of 477 nm and an emission of 525 nm. As 100% and 0% assembly control HEPES buffer containing 2.5 M and 0 M NaCl was used. Experiments were performed thrice in triplicates. EC50 values were calculated by non-linear regression analysis using the Graph Pad Prism 6 software (GraphPad Software, La Jolla, USA).

[2] = Cell viability assay (AlamarBlue); details: human, HepAD38 cells
Procedure: Using the AlamarBlue viability assay cytotoxicity was evaluated in HepAD38 cells in the presence of 0.3 μg/ml tetracycline, which blocks the expression of the HBV genome. Assay condition and plate layout were in analogy to the anti-HBV assay, however other controls were used. On each assay plate six wells containing untreated HepAD38 cells were used as the 100% viability control, and six wells filled with assay medium only were used as 0% viability control. In addition, a geometric concentration series of cycloheximide starting at 60 μM final assay concentration was used as positive control in each experiment. After six days incubation period Alamar Blue Presto cell viability reagent (ThermoFisher, Dreieich) was added in 1/11 dilution to each well of the assay plate. After an incubation for 30 to 45 min at 37° C. the fluorescence signal, which is proportional to the number of living cells, was read using a Tecan Spectrafluor Plus plate reader with an excitation filter 550 nm and emission filter 595 nm, respectively. Data were normalized into percentages of the untreated control (100% viability) and assay medium (0% viability) before CC50 values were calculated using non-linear regression and the GraphPad Prism 6.0 (GraphPad Software, La Jolla, USA). Mean EC50 and CC50 values were used to calculate the selectivity index (SI=CC50/EC50) for each test compound.

HBV core protein (C-terminal truncated core protein containing 149 amino acids of the N-terminal assembly domain), sequence (P03146 whole entry, the tested form may be a part): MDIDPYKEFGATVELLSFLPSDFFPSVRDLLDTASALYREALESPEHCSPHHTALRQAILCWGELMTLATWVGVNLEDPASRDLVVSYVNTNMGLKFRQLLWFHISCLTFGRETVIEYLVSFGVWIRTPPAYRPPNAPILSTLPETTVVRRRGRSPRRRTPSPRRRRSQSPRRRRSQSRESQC

Structure (SMILES)	EC50 (HBV) [µM]	IC50 [1] [µM]	CC50 at 6 days [2] [µM]
CN(C(=O)c1cnn2c1CN(C(=O)c1cc3ccccc3[nH]1)CC2)C1(c2ncccn2)CC1 [Example 47, 5-(1H-indole-2-carbonyl)-N-methyl-N-[1-(pyrimidin-2-yl)cyclopropyl]-4H,5H,6H,7H-pyrazolo[1,5-a]pyrazine-3-carboxamide]	< 1	< 5	> 10
COCC1(CNC(=O)c2cnn3c2CN(C(=O)c2cc4ccccc4[nH]2)CC3)CC1 [Example 10, 5-(1H-indole-2-carbonyl)-N-{[1-(methoxymethyl)cyclopropyl]methyl}-4H,5H,6H,7H-pyrazolo[1,5-a]pyrazine-3-carboxamide]	1 to 10	5 to 10	> 10
CN(C(=O)c1cnn2c1CN(C(=O)c1cc3ccccc3[nH]1)CC2)C1(CO)CC1 [Example 15, N-[1-(hydroxymethyl)cyclopropyl]-5-(1H-indole-2-carbonyl)-N-methyl-4H,5H,6H,7H-pyrazolo[1,5-a]pyrazine-3-carboxamide]	< 1	< 5	> 10
O=C(c1cc2ccccc2[nH]1)N1CCn2ncc(S(=O)(=O)N3CCOCC3)c2C1 [Example 38, 2-[3-(morpholine-4-sulfonyl)-4H,5H,6H,7H-pyrazolo[1,5-a]pyrazine-5-carbonyl]-1H-indole]	< 1	< 5	> 10
O=C(NC1(CCOC(F)F)CCC1)c1cnn2c1CN(C(=O)c1cc3ccccc3[nH]1)CC2 [Example 123, N-{1-[2-(difluoromethoxy)ethyl]cyclobutyl}-5-(1H-indole-2-carbonyl)-4H,5H,6H,7H-pyrazolo[1,5-a]pyrazine-3-carboxamide]	< 1	< 5	> 10
O=C(NC1(CCOC(F)F)CCOCC1)c1cnn2c1CN(C(=O)c1cc3ccccc3[nH]1)CC2 [Example 125, N-{4-[2-(difluoromethoxy)ethyl]oxan-4-yl}-5-(1H-indole-2-carbonyl)-4H,5H,6H,7H-pyrazolo[1,5-a]pyrazine-3-carboxamide]	< 1	< 5	> 10
CNC(=O)c1cnn2c1CN(C(=O)c1cc3ccccc3[nH]1)CC2 [Example 100, 5-(1H-indole-2-carbonyl)-N-methyl-4H,5H,6H,7H-pyrazolo[1,5-a]pyrazine-3-carboxamide]	< 100	5 to 10	> 10
Cc1cc(F)cc2[nH]c(C(=O)N3CCn4ncc(C(=O)NC5(COC(F)F)CC5)c4C3)cc12 [Example 102, N-{1-[(difluoromethoxy)methyl]cyclopropyl}-5-(6-fluoro-4-methyl-1H-indole-2-carbonyl)-4H,5H,6H,7H-pyrazolo[1,5-a]pyrazine-3-carboxamide]	< 1	< 5	> 10
CN(C(=O)c1cnn2c1CN(C(=O)c1cc3ccccc3[nH]1)CC2)C1(CCOC(F)F)CCOCC1 [Example 128]	1 to 10	< 5	> 10
O=C(c1cc2ccccc2[nH]1)N1CCn2ncc(C(=O)N(CCO)C3(CO)CC3)c2C1 [Example 75, N-(2-hydroxyethyl)-N-[1-(hydroxymethyl)cyclopropyl]-5-(1H-indole-2-carbonyl)-4H,5H,6H,7H-pyrazolo[1,5-a]pyrazine-3-carboxamide]	< 1	< 5	> 10
Cc1cc(F)cc2[nH]c(C(=O)N3CCn4ncc(C(=O)N5CCC(O)CC56CC6)c4C3)cc12 (stereo not drawn) [Example 121, 4-[5-(6-fluoro-4-methyl-1H-indole-2-carbonyl)-4H,5H,6H,7H-pyrazolo[1,5-a]pyrazine-3-carbonyl]-4-azaspiro[2.5]octan-7-ol]	< 1	< 5	> 10
CN(C(=O)c1cnn2c1CN(C(=O)c1cc3c(Cl)cc(F)cc3[nH]1)CC2)C1(CO)CC1 [Example 85, 5-(4-chloro-6-fluoro-1H-indole-2-carbonyl)-N-[1-(hydroxymethyl)cyclopropyl]-N-methyl-4H,5H,6H,7H-pyrazolo[1,5-a]pyrazine-3-carboxamide]	< 1	< 5	> 10
O=C(c1cc2ccccc2[nH]1)N1CCn2ncc(-c3cscn3)c2C1 [Example 66, 2-[3-(1,3-thiazol-4-yl)-4H,5H,6H,7H-pyrazolo[1,5-a]pyrazine-5-carbonyl]-1H-indole]	< 1	< 5	> 10
O=C(NC1(COC(F)F)CC1)c1cnn2c1CN(C(=O)c1cc3c(F)c(F)ccc3[nH]1)CC2 [Example 104, 5-(4,5-difluoro-1H-indole-2-carbonyl)-N-{1-[(difluoromethoxy)methyl]cyclopropyl}-4H,5H,6H,7H-pyrazolo[1,5-a]pyrazine-3-carboxamide]	< 1	< 5	> 10
O=C(c1cc2ccccc2[nH]1)N1CCn2ncc(C(=O)N3CCOC(F)(F)C3)c2C1 [Example 69, 2-[3-(2,2-difluoromorpholine-4-carbonyl)-4H,5H,6H,7H-pyrazolo[1,5-a]pyrazine-5-carbonyl]-1H-indole]	< 1	< 5	> 10
